“And” between values parts separate entries of the source, which are not always exact repeats. Equal values may be shown once. Toxic doses and inconclusive results are not listed.
Test system: L1210 leukemia ip in BDF1 mice, survival T/C
Test: NCI In Vivo Anticancer Drug Screen. Data for tumor model L1210 Leukemia (intraperitoneal) in B6D2F1 (BDF1) mice
Details: endpoint: mean survival time, higher = longer survival
Method in brief: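 Value reflects the ratio of survival in compound-treated mice to survival in vehicle-treated controls, with both groups carrying the same transplanted tumor.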

[1] = dose: 200.0 mg/kg/injection, schedule: Q04DX002 (ip), vehicle: saline with Tween-80
[2] = dose: 100.0 mg/kg/injection, schedule: Q01DX001 (ip), vehicle: saline
[3] = dose: 200.0 mg/kg/injection, schedule: Q01DX001 (ip), vehicle: saline
[4] = dose: 400.0 mg/kg/injection, schedule: Q01DX001 (ip), vehicle: saline
[5] = dose: 50.0 mg/kg/injection, schedule: Q01DX001 (ip), vehicle: saline
[6] = dose: 100.0 mg/kg/injection, schedule: Q04DX003 (ip), vehicle: saline with Tween-80
[7] = dose: 200.0 mg/kg/injection, schedule: Q04DX003 (ip), vehicle: saline with Tween-80
[8] = dose: 100.0 mg/kg/injection, schedule: Q01DX009 (ip), vehicle: Klucel (hydroxypropylcellulose) (HPC)
[9] = dose: 200.0 mg/kg/injection, schedule: Q01DX009 (ip), vehicle: Klucel (hydroxypropylcellulose) (HPC)
[10] = dose: 400.0 mg/kg/injection, schedule: Q01DX009 (ip), vehicle: Klucel (hydroxypropylcellulose) (HPC)
[11] = dose: 100.0 mg/kg/injection, schedule: Q04DX003 (ip), vehicle: Klucel (hydroxypropylcellulose) (HPC)
[12] = dose: 200.0 mg/kg/injection, schedule: Q04DX003 (ip), vehicle: Klucel (hydroxypropylcellulose) (HPC)
[13] = dose: 400.0 mg/kg/injection, schedule: Q04DX003 (ip), vehicle: Klucel (hydroxypropylcellulose) (HPC)

## CCOC(=O)C1C(=O)C=C(c2ccccc2)CC1c1ccccc1 (stereo not given)
[1]
  T/C: 90 % of control
dose: 400.0 mg/kg/injection, schedule: Q04DX002 (ip), vehicle: saline with Tween-80
  T/C: 97 % of control

## O=C1NC(=O)N(c2ccc(Cl)cc2)C1=O
dose: 100.0 mg/kg/injection, schedule: Q04DX002 (ip), vehicle: saline with Tween-80
  T/C: 111 % of control
[1]
  T/C: 90 % of control

## Cc1cc2c(c3[nH]c4ccccc4c13)C(=O)c1ccccc1C2=O
[2]
  T/C: 102 % of control
[3]
  T/C: 95 % of control
[4]
  T/C: 102 % of control

## O=C(O)c1c(Cl)c(Cl)c(C(=O)O)c(Cl)c1Cl
dose: 100.0 mg/kg/injection, schedule: Q01DX009 (ip), vehicle: saline with Tween-80
  T/C: 95 % of control
dose: 200.0 mg/kg/injection, schedule: Q01DX009 (ip), vehicle: saline with Tween-80
  T/C: 93 % of control
dose: 400.0 mg/kg/injection, schedule: Q01DX009 (ip), vehicle: saline with Tween-80
  T/C: 89 % of control

## CC1([N+](=O)[O-])COP(=O)(Nc2ccccc2)OC1 (stereo not given)
[5]
  T/C: 96 % of control
[2]
  T/C: 98 % of control
[3]
  T/C: 93 % of control
[4]
  T/C: 110 % of control

## c1ccc2c(c1)C(=Nc1ccc3ccccc3c1)c1ccccc1-2
[6]
  T/C: 97 % of control
[7]
  T/C: 88 % of control
dose: 400.0 mg/kg/injection, schedule: Q04DX003 (ip), vehicle: saline with Tween-80
  T/C: 92 % of control

## Cc1ccc(S(=O)(=O)OCCCN(CCCOS(=O)(=O)c2ccc(C)cc2)c2ccccc2)cc1
[5]
  T/C: 101 % of control
[2]
  T/C: 86 % of control
[3]
  T/C: 95 % of control
[4]
  T/C: 95 % of control

## OC(CF)CCl (stereo not given)
dose: 6.25 mg/kg/injection, schedule: Q01DX009 (ip), vehicle: saline
  T/C: 89 % of control
dose: 12.5 mg/kg/injection, schedule: Q01DX009 (ip), vehicle: saline
  T/C: 96 % of control
dose: 25.0 mg/kg/injection, schedule: Q01DX009 (ip), vehicle: saline
  T/C: 103 % of control

## Cn1nccc2c(=O)n(C)c(=O)nc1-2
dose: 100.0 mg/kg/injection, schedule: Q04DX002 (ip), vehicle: Klucel (hydroxypropylcellulose) (HPC)
  T/C: 97 % of control
dose: 200.0 mg/kg/injection, schedule: Q04DX002 (ip), vehicle: Klucel (hydroxypropylcellulose) (HPC)
  T/C: 95 % of control

## O=c1[nH]cnc2c1ncn2C1SC(CO)C(O)C1O (stereo not given)
dose: 100.0 mg/kg/injection, schedule: Q01DX005 (ip), vehicle: saline
  T/C: 103 % of control
dose: 200.0 mg/kg/injection, schedule: Q01DX005 (ip), vehicle: saline
  T/C: 106 % of control

## COc1cc(Cl)ccc1NC(=O)Oc1ccc(F)cc1Cl
[8]
  T/C: 104 % of control
[9]
  T/C: 108 % of control
[10]
  T/C: 106 % of control

## O=[N+]([O-])c1ccccc1NC1c2ccccc2Oc2ccccc21
[11]
  T/C: 96 % of control
[12]
  T/C: 93 % of control
[13]
  T/C: 93 % of control

## COc1c(N)ccc(-c2ccc(N)c(OC)c2Cl)c1Cl
dose: 75.0 mg/kg/injection, schedule: Q04DX003 (ip), vehicle: saline with Tween-80
  T/C: 94 % of control

## CCCCCCCCCCCCCCCOc1ccc(C)cc1
[11]
  T/C: 93 % of control
[12]
  T/C: 101 % of control
[13]
  T/C: 95 % of control

## Cc1ccnc(NS(=O)(=O)c2ccc(N=Nc3nc4[nH]c(N)nc(=S)c4[nH]3)cc2)n1
dose: 1.56 mg/kg/injection, schedule: Q01DX009 (ip), vehicle: Klucel (hydroxypropylcellulose) (HPC)
  T/C: 230 % of control
dose: 12.5 mg/kg/injection, schedule: Q01DX009 (ip), vehicle: Klucel (hydroxypropylcellulose) (HPC)
  T/C: 94 % of control and 108 % of control
dose: 25.0 mg/kg/injection, schedule: Q04DX003 (ip), vehicle: Klucel (hydroxypropylcellulose) (HPC)
  T/C: 162 % of control and 180 % of control
dose: 50.0 mg/kg/injection, schedule: Q04DX003 (ip), vehicle: Klucel (hydroxypropylcellulose) (HPC)
  T/C: 173 % of control and 182 % of control and 192 % of control

## O=c1oc2ccccc2c(O)c1C(c1ccc2c(c1)CCC2)c1c(O)c2ccccc2oc1=O
[11]
  T/C: 92 % of control
[12]
  T/C: 100 % of control
[13]
  T/C: 92 % of control

## COc1ccc(OC)c2c1CC1CC(=O)OC21C (stereo not given)
[8]
  T/C: 97 % of control
[11]
  T/C: 97 % of control
[9]
  T/C: 92 % of control
[12]
  T/C: 97 % of control
[10]
  T/C: 97 % of control
[13]
  T/C: 97 % of control

## Nc1c(Oc2cccc(C[N+]3(CCOS(=O)(=O)O)CC3)c2)cc(O)c2c1C(=O)c1ccccc1C2=O
dose: 100.0 mg/kg/injection, schedule: Q01DX001 (ip), vehicle: carboxymethylcellulose (CMC)
  T/C: 96 % of control
dose: 200.0 mg/kg/injection, schedule: Q01DX001 (ip), vehicle: carboxymethylcellulose (CMC)
  T/C: 93 % of control

## CC(=O)OC1C(NC(=O)OCc2ccccc2)CC(NC(=O)OCc2ccccc2)C(O)C1O (stereo not given)
[6]
  T/C: 94 % of control
[7]
  T/C: 88 % of control
